Where two headings read alike, the source gives them in different places.

In assay [1] the target is T1, UmpK (UMP/CMP kinase) (Dictyostelium discoideum, UniProt P20425).
T1 construct: gene pyrK; recombinant, expressed and purified as in Supporting Information; details not in main text
The assay is described as follows: biochemical. Details: fluorescence titration, equilibrium binding / displacement of fluorescent MANT-ADP. The source says: First, we defined and characterized stable states along the reaction coordinate (Supporting Information). One reference state is nucleotide‐free (apo) UmpK (Figure 1 a), where the catalytic side‐chains are expected to be very flexible because of the absence of any ligand, thus giving an indication of the upper limit of conformational entropy. An ideal reference for a substrate/product‐bound state is provided by UmpK in complex with the bi‐substrate inhibitor AP5U (Supporting Information; Figure 1 b), where a phosphate group covalently links ATP and UMP such that nucleotide‐like binding occurs but without turnover.11 The overall structure of UmpK in complex with AP5U is essentially identical to other nucleotide‐bound structures available (Figure 1 b). Despite minor differences in the lid loop conformation and the aliphatic part of the R137 side‐chain, the position of the central guanidino groups is nearly identical. […] The transition state of the phosphoryl transfer reaction is well‐represented by UmpK in complex with the TSA formed by ADP, UMP/CMP and an AlFx molecule that mimics the phosphoryl group being transferred (Figure 1 c).7 To further confirm the formation of a stable complex that captures the transition state structure, we performed functional studies including nucleotide exchange kinetics measurements in the presence and absence of aluminium fluoride (Figures 1 f and S1/S2, Table S1).  Figure 1 a) Nucleotide‐free UmpK (H. sapiens, PDB: 1TEV10). b) Overlay of UmpK in complex with the bi‐substrate inhibitor AP5U, (red, D. discoideum, PDB: 1UKE11), and in complex with ADP and CMP (orange, D. discoideum, PDB: 2UKD7). c) UmpK in complex with the TSA ADP:AlFx:CMP (D. discoideum, PDB: 3UKD7). In (a–c) arginine side‐chains are shown in yellow (numbering refers to UmpK from D. discoideum). d) Schematic representation of the reaction catalyzed by UmpK and the states studied here: nucleotide‐free (green), substrate/product‐bound (red), and the transition state (blue). e) AP5U binding to UmpK monitored by equilibrium displacement of fluorescent MANT‐ADP. Binding of AP5U (K D≤1.0 nM) generates a stable substrate/product‐like state. f) Nucleotide exchange kinetics measured by stopped flow. UmpK incubated with UMP and ADP in the presence of 0.5 mM AlFx (blue), 3 mM MgFx (grey) or in the absence of any fluoride (red) was mixed rapidly with the competing ligand MANT‐AP5A‐MANT. […] 3 Materials and Methods: 1. Mutagenesis, protein expression and purification: Arginine to lysine mutations were introduced into UmpK from Dictyostelium discoideum using the QuikChange® protocol. DNA sequencing was performed to verify the eight introduced mutations. Unlabeled [U-1 H,12C,14N] UmpK was expressed in LB medium, uniformly 15N-/ 13C-labeled [U-13C,15N] UmpK was expressed in M9 minimal medium using 2 g/L U-13C-glucose and 1 g/L 15NH4Cl as the sole carbon and nitrogen sources, respectively. Selectively labelled [13C,15N-Arg; U-12C,14N] UmpK and [13C,15N-Arg+Lys; U-12C,14N] UmpK with only (i) arginine residues or (ii) lysine and arginine residues isotopically labelled, respectively, were expressed in M9 minimal medium supplemented (i) 100 mg/L 15N-/ 13C-arginine or (ii) 100 mg/L 15N-/ 13C-arginine and 15N-/ 13C-lysine. All UmpK variants were purified as described previously using Blue Sepharose affinity chromatography and SourceQ anion exchange chromatography.

For assay [2], the target named is T1, UmpK (UMP/CMP kinase). The assay is described as follows: biochemical. Details: fluorescence titration of nucleotide binding to UmpK (MANT-ADP fluorescence / displacement). The following applies: Mg-free. The text has this: First, we defined and characterized stable states along the reaction coordinate (Supporting Information). One reference state is nucleotide‐free (apo) UmpK (Figure 1 a), where the catalytic side‐chains are expected to be very flexible because of the absence of any ligand, thus giving an indication of the upper limit of conformational entropy. An ideal reference for a substrate/product‐bound state is provided by UmpK in complex with the bi‐substrate inhibitor AP5U (Supporting Information; Figure 1 b), where a phosphate group covalently links ATP and UMP such that nucleotide‐like binding occurs but without turnover.11 The overall structure of UmpK in complex with AP5U is essentially identical to other nucleotide‐bound structures available (Figure 1 b). Despite minor differences in the lid loop conformation and the aliphatic part of the R137 side‐chain, the position of the central guanidino groups is nearly identical. […] The transition state of the phosphoryl transfer reaction is well‐represented by UmpK in complex with the TSA formed by ADP, UMP/CMP and an AlFx molecule that mimics the phosphoryl group being transferred (Figure 1 c).7 To further confirm the formation of a stable complex that captures the transition state structure, we performed functional studies including nucleotide exchange kinetics measurements in the presence and absence of aluminium fluoride (Figures 1 f and S1/S2, Table S1).  Figure 1 a) Nucleotide‐free UmpK (H. sapiens, PDB: 1TEV10). b) Overlay of UmpK in complex with the bi‐substrate inhibitor AP5U, (red, D. discoideum, PDB: 1UKE11), and in complex with ADP and CMP (orange, D. discoideum, PDB: 2UKD7). c) UmpK in complex with the TSA ADP:AlFx:CMP (D. discoideum, PDB: 3UKD7). In (a–c) arginine side‐chains are shown in yellow (numbering refers to UmpK from D. discoideum). d) Schematic representation of the reaction catalyzed by UmpK and the states studied here: nucleotide‐free (green), substrate/product‐bound (red), and the transition state (blue). e) AP5U binding to UmpK monitored by equilibrium displacement of fluorescent MANT‐ADP. Binding of AP5U (K D≤1.0 nM) generates a stable substrate/product‐like state. f) Nucleotide exchange kinetics measured by stopped flow. UmpK incubated with UMP and ADP in the presence of 0.5 mM AlFx (blue), 3 mM MgFx (grey) or in the absence of any fluoride (red) was mixed rapidly with the competing ligand MANT‐AP5A‐MANT.

For assay [3], the target named is T1, UmpK (UMP/CMP kinase). The assay is described as follows: stopped-flow nucleotide exchange with MANT-AP5A-MANT. Type of assay: binding. As to conditions: dissociation rate of ADP and UMP together, no metal fluoride.
Setting [4] is: 5 mM MgCl2, alone, read-out: UmpK wild-type (5 mM MgCl2) Alone.
Setting [5] is: with ADP, 5 mM MgCl2, 250 uM second nucleotide present, read-out: UmpK wild-type (5 mM MgCl2) in the presence of 250 uM second nucleotide.
The mark [6] stands for this setting: with 250 uM ADP, read-out: wild-type (Mg-free) in presence of 250 uM ADP.
Setting [7] is: with CMP, 5 mM MgCl2, 250 uM second nucleotide present, read-out: UmpK wild-type (5 mM MgCl2) in the presence of 250 uM second nucleotide.

T1 sequence (P20425 whole entry): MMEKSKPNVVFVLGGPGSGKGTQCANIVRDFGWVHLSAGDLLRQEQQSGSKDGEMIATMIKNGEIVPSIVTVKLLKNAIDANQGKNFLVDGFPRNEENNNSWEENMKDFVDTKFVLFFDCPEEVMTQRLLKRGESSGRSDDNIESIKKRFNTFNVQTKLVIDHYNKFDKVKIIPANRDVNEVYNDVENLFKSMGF

Regarding `Nc1ccn([C@@H]2O[C@H](COP(=O)(O)OP(=O)(O)O)[C@@H](O)[C@H]2O)c(=O)n1` [CDP], the figures for the Kd in assay [1] (setting [4]), in assay [1] (setting [5]) and in assay [2] (setting [6]) were 66 ± 11 µM, 17 ± 3 µM and 64 ± 6 µM, respectively.
Consider `Nc1ncnc2c1ncn2[C@@H]1O[C@H](COP(=O)(O)OP(=O)(O)O)[C@@H](O)[C@H]1O` [ADP], for which the Kd was determined as 80 ± 2 µM in assay [1] (setting [4]); 10 ± 1 µM in assay [1] (setting [7]); 49 ± 0.5 µM in assay [2] (with 250 uM CDP, read-out: wild-type (Mg-free) in presence of 250 uM CDP). In assay [3] (UMP present), the k fast is on record as ~ 60 s^-1.
Consider `Nc1ccn([C@@H]2O[C@H](COP(=O)(O)O)[C@@H](O)[C@H]2O)c(=O)n1` [CMP], for which the Kd in assay [1] (setting [4]) is 77 ± 11 µM; in assay [1] (setting [5]) it was 23 ± 3 µM; in assay [2] (setting [6]), 205 ± 20 µM.
As for `O=c1ccn([C@@H]2O[C@H](COP(=O)(O)O)[C@@H](O)[C@H]2O)c(=O)[nH]1` [UMP], the k fast in assay [3] (ADP present) is ~ 60 s^-1.
For the compound `O=c1ccn([C@@H]2O[C@H](COP(=O)(O)OP(=O)(O)O)[C@@H](O)[C@H]2O)c(=O)[nH]1` [UDP], the Kd stood at 600 ± 70 µM in assay [1] (setting [4]), 60 ± 14 µM in assay [1] (setting [5]) and 400 ± 45 µM in assay [2] (setting [6]).
For `Nc1ncnc2c1ncn2[C@@H]1O[C@H](COP(=O)(O)OP(=O)(O)OP(=O)(O)O)[C@@H](O)[C@H]1O` [ATP], the Kd in assay [1] (setting [4]) turned out to be 51 ± 2 µM; in assay [1] (setting [7]), 7.3 ± 0.4 µM; in assay [2] (with 250 uM CMP, read-out: wild-type (Mg-free) in presence of 250 uM CMP) it was 68 ± 3 µM.

The record behind these values is paper PMC5026167, “Characterizing Active Site Conformational Heterogeneity along the Trajectory of an Enzymatic Phosphoryl Transfer Reaction” (Angewandte Chemie (International Ed. in English), 2016).
